What follows are molecules tested against Kappa-type opioid receptor (Homo sapiens, UniProt P41145) (assay: Agonistic activity of the kappa-opioid receptors: Forskolin can stimulate the release of cAMP from HEK293 cells with high expression of human κ (or μ, or δ)-opioid receptors. […] The efficacy of the compounds of the invention as κ-opioid receptor agonists was determined by measuring the ability of the compounds of Examples to inhibit adenylate cyclase activity.Cell culture: The HEK293 cell line highly expressing human κ (or μ, or δ)-opioid receptor were cultured in DMEM medium containing 10% FBS.Stimulation: the test compound was 4-fold diluted in a gradient manner to obtain 10 concentrations, and 50 nl of each was transferred to a 384-well plate, and then 10 nl Forskolin was added; the cells were digested, re-suspended, and counted; and then 10 μl of cell suspension (5×10^5 cell/mL) was added, and the cells were mixed gently, and incubated at 23° C. for 60 minutes.Detection: cAMP Assay Kit (Cisbio) was used, cAMPD2 and Anti-cAMP conjugate were added, and the resultant mixture was incubated for 1 h at room temperature. The plate was read using envision (Perkin Elmer) and EC50 was obtained by means of fitting with a four-parameter equation.).
Sequence of Kappa-type opioid receptor (P41145 whole entry): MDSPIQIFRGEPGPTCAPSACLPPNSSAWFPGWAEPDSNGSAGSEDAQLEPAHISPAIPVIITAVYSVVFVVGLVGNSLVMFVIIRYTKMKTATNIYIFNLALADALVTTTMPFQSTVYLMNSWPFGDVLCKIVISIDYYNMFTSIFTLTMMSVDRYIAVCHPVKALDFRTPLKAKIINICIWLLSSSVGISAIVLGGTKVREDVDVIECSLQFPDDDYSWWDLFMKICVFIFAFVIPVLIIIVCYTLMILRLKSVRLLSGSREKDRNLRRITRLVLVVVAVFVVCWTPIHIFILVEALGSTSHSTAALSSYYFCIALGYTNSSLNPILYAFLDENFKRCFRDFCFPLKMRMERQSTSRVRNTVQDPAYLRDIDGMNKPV
Format: cell-based
Molecule CC(C)C[C@@H](NC(=O)[C@@H](Cc1ccccc1)NC(=O)[C@H](N)Cc1ccccc1)C(=O)N[C@H](CCCCN)C(=O)N1CCC[C@H]1B(O)O has an EC50 of 1 pM.

These molecules were tested against Cytochrome P450 2C19 (Homo sapiens, UniProt P33261) (assay: (§1) Inhibition of Cytochrome P450 Oxidase: The human liver microsomes (0.253 mg/mL protein) containing cytochrome P450, test compounds (0.05-50 μM), CYPs substrates (10 μM […], 5 μM diclofenac, 30 μM mephenytoin, 5 μM dextromethorphan hydrobromide, 2 μM midazolam), 1.0 mM NADP were incubated at 37° C. for 10 minutes. Naflavone, sulfafenpyrazole, N-3-benzylnivan, quinidine, and ketoconazole were used as reference inhibitors.).
Sequence of Cytochrome P450 2C19 (P33261 whole entry): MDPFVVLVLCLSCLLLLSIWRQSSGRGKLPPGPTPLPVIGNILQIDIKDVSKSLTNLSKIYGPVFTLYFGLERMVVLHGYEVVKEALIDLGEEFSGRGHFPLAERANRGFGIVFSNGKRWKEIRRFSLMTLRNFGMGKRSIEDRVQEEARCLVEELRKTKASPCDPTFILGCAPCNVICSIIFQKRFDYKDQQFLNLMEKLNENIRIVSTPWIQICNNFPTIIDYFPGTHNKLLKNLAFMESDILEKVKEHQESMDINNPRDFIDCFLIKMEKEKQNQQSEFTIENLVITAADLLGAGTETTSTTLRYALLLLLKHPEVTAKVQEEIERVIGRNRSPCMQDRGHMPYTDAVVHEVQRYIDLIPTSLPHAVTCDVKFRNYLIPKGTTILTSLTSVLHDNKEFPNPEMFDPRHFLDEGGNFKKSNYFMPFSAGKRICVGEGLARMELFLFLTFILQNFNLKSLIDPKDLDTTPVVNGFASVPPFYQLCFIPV
In the case of CC(C)C[C@@H](NC(=O)[C@@H](Cc1ccccc1)NC(=O)[C@H](N)Cc1ccccc1)C(=O)N[C@H](CCCCN)C(=O)N1CC=C(B(O)O)C1, the IC50 is reported as > 50 µM. In the case of CC(C)C[C@@H](NC(=O)[C@@H](Cc1ccccc1)NC(=O)[C@H](N)Cc1ccccc1)C(=O)N[C@H](CCCCN)C(=O)N1CC[C@@H](B(O)O)C1, the IC50 is reported as > 50 µM. For CC(C)C[C@@H](NC(=O)[C@@H](Cc1ccccc1)NC(=O)[C@H](N)Cc1ccccc1)C(=O)N[C@H](CCCCN)C(=O)N1CCC(N)(B(O)O)CC1, the IC50 was > 50 µM. With CC(C)C[C@@H](NC(=O)[C@@H](Cc1ccccc1)NC(=O)[C@H](N)Cc1ccccc1)C(=O)N[C@H](CCCCN)C(=O)N1CCC[C@H]1B(O)O the IC50 was > 50 µM.

These molecules were tested against Cytochrome P450 2C9 (Homo sapiens, UniProt P11712) (assay: as §1).
Sequence of Cytochrome P450 2C9 (P11712 whole entry): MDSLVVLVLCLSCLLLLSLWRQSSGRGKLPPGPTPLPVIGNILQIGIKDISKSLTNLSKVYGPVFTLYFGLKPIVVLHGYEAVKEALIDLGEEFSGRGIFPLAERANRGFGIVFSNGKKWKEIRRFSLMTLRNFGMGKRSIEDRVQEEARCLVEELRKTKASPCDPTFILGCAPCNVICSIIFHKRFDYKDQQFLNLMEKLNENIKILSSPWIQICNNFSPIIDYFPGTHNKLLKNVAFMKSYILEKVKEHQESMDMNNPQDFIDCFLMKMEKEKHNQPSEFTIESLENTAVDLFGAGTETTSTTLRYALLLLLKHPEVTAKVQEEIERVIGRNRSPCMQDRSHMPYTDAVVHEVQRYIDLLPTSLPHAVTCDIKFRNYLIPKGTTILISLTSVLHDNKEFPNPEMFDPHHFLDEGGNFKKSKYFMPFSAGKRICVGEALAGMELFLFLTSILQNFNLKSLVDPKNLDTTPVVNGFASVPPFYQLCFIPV
For CC(C)C[C@@H](NC(=O)[C@@H](Cc1ccccc1)NC(=O)[C@H](N)Cc1ccccc1)C(=O)N[C@H](CCCCN)C(=O)N1CC=C(B(O)O)C1, the IC50 was > 50 µM. With CC(C)C[C@@H](NC(=O)[C@@H](Cc1ccccc1)NC(=O)[C@H](N)Cc1ccccc1)C(=O)N[C@H](CCCCN)C(=O)N1CC[C@@H](B(O)O)C1 the IC50 was > 50 µM. In the case of CC(C)C[C@@H](NC(=O)[C@@H](Cc1ccccc1)NC(=O)[C@H](N)Cc1ccccc1)C(=O)N[C@H](CCCCN)C(=O)N1CCC(N)(B(O)O)CC1, the IC50 is reported as > 50 µM. For CC(C)C[C@@H](NC(=O)[C@@H](Cc1ccccc1)NC(=O)[C@H](N)Cc1ccccc1)C(=O)N[C@H](CCCCN)C(=O)N1CCC[C@H]1B(O)O, the IC50 was > 50 µM.

These molecules were tested against Cytochrome P450 2D6 (Homo sapiens, UniProt P10635) (assay: as §1).
Sequence of Cytochrome P450 2D6 (P10635 whole entry): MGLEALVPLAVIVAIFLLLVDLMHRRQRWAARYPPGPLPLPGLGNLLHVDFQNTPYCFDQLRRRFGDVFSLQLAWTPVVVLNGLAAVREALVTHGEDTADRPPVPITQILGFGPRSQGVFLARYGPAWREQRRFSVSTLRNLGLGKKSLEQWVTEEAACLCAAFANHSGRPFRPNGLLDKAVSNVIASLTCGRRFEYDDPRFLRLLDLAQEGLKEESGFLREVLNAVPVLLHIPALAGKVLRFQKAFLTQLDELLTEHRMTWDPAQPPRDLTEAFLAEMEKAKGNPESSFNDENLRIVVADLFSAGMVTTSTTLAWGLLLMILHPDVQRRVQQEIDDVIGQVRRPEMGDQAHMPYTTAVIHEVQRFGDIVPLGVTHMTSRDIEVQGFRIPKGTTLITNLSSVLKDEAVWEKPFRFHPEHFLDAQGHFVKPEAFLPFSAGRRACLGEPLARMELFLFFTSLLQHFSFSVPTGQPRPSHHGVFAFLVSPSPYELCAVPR
CC(C)C[C@@H](NC(=O)[C@@H](Cc1ccccc1)NC(=O)[C@H](N)Cc1ccccc1)C(=O)N[C@H](CCCCN)C(=O)N1CC=C(B(O)O)C1 was tested, and the IC50 was > 50 µM. In the case of CC(C)C[C@@H](NC(=O)[C@@H](Cc1ccccc1)NC(=O)[C@H](N)Cc1ccccc1)C(=O)N[C@H](CCCCN)C(=O)N1CC[C@@H](B(O)O)C1, the IC50 is reported as > 50 µM. In the case of CC(C)C[C@@H](NC(=O)[C@@H](Cc1ccccc1)NC(=O)[C@H](N)Cc1ccccc1)C(=O)N[C@H](CCCCN)C(=O)N1CCC(N)(B(O)O)CC1, the IC50 is reported as > 50 µM. With CC(C)C[C@@H](NC(=O)[C@@H](Cc1ccccc1)NC(=O)[C@H](N)Cc1ccccc1)C(=O)N[C@H](CCCCN)C(=O)N1CCC[C@H]1B(O)O the IC50 was > 50 µM.

What follows are molecules tested against Cytochrome P450 3A4 (Homo sapiens, UniProt P08684) (assay: as §1).
Sequence of Cytochrome P450 3A4 (P08684 whole entry): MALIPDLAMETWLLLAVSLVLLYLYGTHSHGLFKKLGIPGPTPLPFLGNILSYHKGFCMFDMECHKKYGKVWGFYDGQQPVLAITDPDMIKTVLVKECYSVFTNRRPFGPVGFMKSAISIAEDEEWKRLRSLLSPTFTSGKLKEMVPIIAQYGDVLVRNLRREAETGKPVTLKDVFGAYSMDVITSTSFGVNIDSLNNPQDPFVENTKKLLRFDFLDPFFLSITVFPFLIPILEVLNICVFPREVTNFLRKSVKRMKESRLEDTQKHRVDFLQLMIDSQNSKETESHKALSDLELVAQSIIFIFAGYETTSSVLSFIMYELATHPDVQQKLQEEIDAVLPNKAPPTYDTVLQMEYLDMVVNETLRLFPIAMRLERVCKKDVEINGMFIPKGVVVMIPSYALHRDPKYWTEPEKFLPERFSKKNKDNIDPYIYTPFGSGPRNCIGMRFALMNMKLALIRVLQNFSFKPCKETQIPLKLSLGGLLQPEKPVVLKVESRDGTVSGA
In the case of CC(C)C[C@@H](NC(=O)[C@@H](Cc1ccccc1)NC(=O)[C@H](N)Cc1ccccc1)C(=O)N[C@H](CCCCN)C(=O)N1CC=C(B(O)O)C1, the IC50 is reported as > 50 µM. For CC(C)C[C@@H](NC(=O)[C@@H](Cc1ccccc1)NC(=O)[C@H](N)Cc1ccccc1)C(=O)N[C@H](CCCCN)C(=O)N1CC[C@@H](B(O)O)C1, the IC50 was > 50 µM. CC(C)C[C@@H](NC(=O)[C@@H](Cc1ccccc1)NC(=O)[C@H](N)Cc1ccccc1)C(=O)N[C@H](CCCCN)C(=O)N1CCC(N)(B(O)O)CC1 was tested, and the IC50 was > 50 µM. With CC(C)C[C@@H](NC(=O)[C@@H](Cc1ccccc1)NC(=O)[C@H](N)Cc1ccccc1)C(=O)N[C@H](CCCCN)C(=O)N1CCC[C@H]1B(O)O the IC50 was > 50 µM.

The molecules below were run against T1, Cytochrome P450 1A2 (Homo sapiens, UniProt P05177) (assay: as §1).
T1 sequence (P05177 whole entry): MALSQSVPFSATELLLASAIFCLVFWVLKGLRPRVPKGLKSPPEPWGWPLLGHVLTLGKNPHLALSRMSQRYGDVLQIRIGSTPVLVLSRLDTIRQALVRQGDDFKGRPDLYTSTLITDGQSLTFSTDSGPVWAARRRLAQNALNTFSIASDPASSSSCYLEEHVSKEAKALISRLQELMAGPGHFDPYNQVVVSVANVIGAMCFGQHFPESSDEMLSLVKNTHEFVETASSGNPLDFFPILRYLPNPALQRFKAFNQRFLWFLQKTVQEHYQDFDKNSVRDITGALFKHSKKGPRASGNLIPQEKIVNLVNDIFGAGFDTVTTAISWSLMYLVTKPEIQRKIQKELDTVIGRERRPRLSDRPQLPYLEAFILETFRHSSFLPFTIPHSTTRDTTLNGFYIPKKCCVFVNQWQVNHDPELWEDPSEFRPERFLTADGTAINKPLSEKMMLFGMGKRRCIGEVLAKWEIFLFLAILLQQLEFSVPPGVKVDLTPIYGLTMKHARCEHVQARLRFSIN
For CC(C)C[C@@H](NC(=O)[C@@H](Cc1ccccc1)NC(=O)[C@H](N)Cc1ccccc1)C(=O)N[C@H](CCCCN)C(=O)N1CC=C(B(O)O)C1, the IC50 was > 50 µM. For CC(C)C[C@@H](NC(=O)[C@@H](Cc1ccccc1)NC(=O)[C@H](N)Cc1ccccc1)C(=O)N[C@H](CCCCN)C(=O)N1CC[C@@H](B(O)O)C1, the IC50 was > 50 µM. CC(C)C[C@@H](NC(=O)[C@@H](Cc1ccccc1)NC(=O)[C@H](N)Cc1ccccc1)C(=O)N[C@H](CCCCN)C(=O)N1CCC(N)(B(O)O)CC1 was tested, and the IC50 was > 50 µM. For CC(C)C[C@@H](NC(=O)[C@@H](Cc1ccccc1)NC(=O)[C@H](N)Cc1ccccc1)C(=O)N[C@H](CCCCN)C(=O)N1CCC[C@H]1B(O)O, the IC50 was > 50 µM.
